Entries after “also recorded” stand apart in the source; their conditions may differ.
Columns and labels:
Type in all cases: cell-based
[1] = target: T1, FKBP12WT (Homo sapiens, UniProt P62942); experiment: Immunoblot of wild type FKBP12 in 293FT cells (selectivity control); settings: 293FT CRBN-WT or CRBN−/−, indicated concentrations, 4 hours
T1 construct: expressed in transfected cells; host or cells: 293FT cells (CRBN-WT or CRBN-/-)
Description: 293FT cells (CRBN-WT or CRBN−/−) expressing either HA-tagged FKBP12WT or FKBP* were treated with indicated concentrations of dFKBP7 for 4 hours.
Isogenic 293FT cells (CRBN-WT or CRBN−/−) expressing either FKBP12WT or FKBP* were treated with 100 nM of either dFKBP7 or dFKBP13 for 4 hours.
The dTAG is predicated on the selectivity of FKBP* specific ligands over endogenous, wild type FKBP. […] 293FT cells (CRBN-WT or CRBN−/−) expressing either HA-tagged FKBP12WT or FKBP* were treated with indicated concentrations of dFKBP7 for 4 hours.
Isogenic 293FT cells (CRBN-WT or CRBN−/−) were engineered to expressed either FKBP12WT or FKBP*. Cells were treated with 100 nM of either dFKBP7 or dFKBP13 for 4 hours before lysates were prepared for western immunoblot analysis.

[2] = tested on: indicated proteins fused to mutant FKBP* with an HA tag; experiment: Immunoblot of proteins fused to FKBP* in MV4;11 leukemia cells; settings: MV4;11 cells, 16 hours, indicated concentrations
Description: Immunoblots of MV4;11 leukemia cells expressing indicated proteins fused to mutant FKBP* with an HA tag.
To test the general utility of the dTAG technology across several protein types, the indicated proteins fused to the dTAG in MV4;11 leukemia cells were expressed.

[3] = tested on: FKBP*-KRASG12V; experiment: Immunoblot of FKBP*-KRASG12V (dTAG-KRAS) degradation in NIH3T3 cells; settings: for degradation of FKBP*-KRASG12V: 24 hours
Description: FIG. 11 is an immunoblot of NIH3T3 cells expressing KRASG12V allele fused to FKBP* in the N-terminus or C-terminus. Cells were treated with 500 nM dFKBP7 for the indicated time. Cells were harvested and immunoblotted to measure degradation of FKBP*-KRASG12V and downstream surrogates of KRAS signaling (e.g. pMEK and pAKT).
FIG. 12 is an immunoblot of NIH3T3 cells expressing FKBP* fused to the N-terminus of KRASG12V treated with 1 uM of the indicated dFKBP heterobifunctional compounds for 24 hours. Cells were harvested and immunoblotted to measure degradation of FKBP*-KRASG12V and downstream surrogates of KRAS signaling (e.g. pMEK and pAKT).
FIG. 13 is an immunoblot of NIH3T3 cells expressing FKBP* fused to the N-terminus of KRASG12V treated with the indicated concentrations of dFKBP13 for 24 hours. Cells were harvested and immunoblotted to measure degradation of FKBP*-KRASG12V and downstream surrogates of KRAS signaling (e.g. pMEK and pAKT).
FIG. 14 is an immunoblot of NIH3T3 cells expressing FKBP* fused to the N-terminus of KRASG12V treated with 1 uM dFKBP13 for the indicated time. Cells were harvested and immunoblotted to measure degradation of FKBP*-KRASG12V and downstream surrogates of KRAS signaling (e.g. pMEK and pAKT).
FIG. 15 is an immunoblot of NIH3T3 cells expressing dTAG-KRASG12V pretreated with 1 uM Carfilzomib (proteasome inhibitor), 0.5 uM MLN4924 (neddylation inhibitor), and 10 uM Lenalidomide (CRBN binding ligand) for two hours prior to a 4 hour treatment with dFKBP13.
Cells were treated with 500 nM dFKBP7 for the indicated time. Cells were harvested and immunoblotted to measure degradation of FKBP*-KRAS and downstream surrogates of KRAS signaling (e.g. pMEK and pAKT).
In an effort to identify the best performing dFKBP molecule, dTAG-KRAS degradation was profiled across a series of dFKBP molecules. Western blotting of NIH3T3 cells expressing dTAG-KRASG12V were treated with 1 μM of the indicated dFKBP heterobifunctional compounds for 24 hours. Cells were harvested and immunoblotted to measure degradation of FKBP*-KRAS and downstream surrogates of KRAS signaling (e.g. pMEK and pAKT).
Western blotting of NIH3T3 cells expressing FKBP* fused to the N-terminus of KRAS treated with the indicated concentrations of dFKBP13 for 24 hours. Cells were harvested and immunoblotted to measure degradation of FKBP*-KRAS and downstream surrogates of KRAS signaling (e.g. pMEK and pAKT).
To evaluate the kinetic control of targeted degradation of dTAG-KRAS, dFKBP13 was administered by increased duration. Western blotting of NIH3T3 cells expressing FKBP* fused to the N-terminus of KRAS treated with 1 μM dFKBP13 for the indicated time. Cells were harvested and immunoblotted to measure degradation of FKBP*-KRAS and downstream surrogates of KRAS signaling (e.g. pMEK and pAKT).
NIH3T3 cells (CRBN-WT) were engineered to express dTAG-KRASG12V. Cells were pretreated with 1 uM Carfilzomib (proteasome inhibitor), 0.5 uM MLN4924 (neddylation inhibitor), and 10 uM Lenalidomide (CRBN binding ligand) for two hours prior to a 4 hour treatment with dFKBP13. Lysates were prepared and western immunoblot analysis performed. […] Pre-treatment with the NAE1 inhibitor MLN4924 rescued dTAG-KRASG12V expression establishing dependence on CRL activity, as expected for cullin-based ubiquitin ligases that require neddylation for processive E3 ligase activity. Pre-treatment with excess Lenalidomide abolished dFKBP13-dependent dTAG-KRASG12V degradation, confirming the requirement of CRBN engagement for degradation.

[4] = tested on: NIH3T3 cells expressing dTAG-KRASG12V; experiment: Propidium iodide cell cycle analysis of NIH3T3 cells expressing dTAG-KRASG12V; settings: 48 hours
Description: FIG. 20 is a bar graph illustrating NIH3T3 cells expressing dTAG-KRASG12V treated with dFKBP7 and dFKBP13 for 48 hours to induce targeted dTAG-KRASG12V degradation. Fixed cells were stained with propidium iodide and cell cycle analysis was performed.
NIH3T3 cells were engineered to express dTAG-KRASG12V. NIH3T3 cells expressing dTAG-KRASG12V were treated with dFKBP7 and dFKBP13 for 48 hours to induce targeted dTAG-KRASG12V degradation. Fixed cells were stained with propidium iodide and cell cycle analysis was performed.

[5] = tested on: NIH3T3 cells expressing FKBP*-KRASG12V; experiment: Phase contrast imaging of NIH3T3 cells expressing dTAG-KRAS; settings: NIH3T3 overexpressing dTAG-KRAS, 24 hours
Description: FIG. 18A, FIG. 18B, FIG. 18C, and FIG. 18D are panels of phase contrast images of control NIH3T3 cells or NIH3T3 expressing FKBP* fused to the N-terminus of KRASG12V treated with DMSO of dFKBP13 for 24 hours.

T1 sequence (P62942 whole entry): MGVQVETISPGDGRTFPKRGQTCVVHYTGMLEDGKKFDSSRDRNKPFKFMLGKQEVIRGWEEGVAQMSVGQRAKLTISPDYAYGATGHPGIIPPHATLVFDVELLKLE

CC[C@H](C(=O)N1CCCC[C@H]1C(=O)O[C@H](CCc1ccc(OC)c(OC)c1)c1cccc(OCC(=O)NCCCOCCOCCOCCCNC(=O)COc2cccc3c2C(=O)N(C2CCC(=O)NC2=O)C3=O)c1)c1cc(OC)c(OC)c(OC)c1 (some centres unmarked) [dFKBP7]
degradation of HA-tagged FKBP12WT [1]: not FKBPWT
degradation of proteins fused to dTAG [2]: degradation was observed with nanomolar concentrations
degradation of N-terminal dTAG-KRAS (FKBP*-KRASG12V) ([3]; NIH3T3, 500 nM, indicated time): potent degradation; also recorded: degraded
cell cycle profile (S-phase entry) [4]: diminished S-phase entry

CC[C@H](C(=O)N1CCCC[C@H]1C(=O)O[C@H](CCc1ccc(OC)c(OC)c1)c1cccc(OCC(=O)NCCCCCCOc2cccc3c2C(=O)N(C2CCC(=O)NC2=O)C3=O)c1)c1cc(OC)c(OC)c(OC)c1 (some centres unmarked) [dFKBP13]
degradation of proteins fused to dTAG [2]: degradation was observed with nanomolar concentrations
degradation of FKBP*-KRASG12V ([3]; NIH3T3, 1 uM): potent degradation
time to degradation of FKBP*-KRASG12V ([3]; NIH3T3, 1 uM, post treatment): ≤ 1 h
degradation of FKBP*-KRASG12V ([3]; NIH3T3, indicated concentrations): potent degradation
mechanism of dTAG-KRASG12V degradation ([3]; NIH3T3 CRBN-WT, 4 hour treatment after inhibitor pretreatment): CRBN- and proteasome-dependent degradation
cell morphology [5]: morphologically revert back to the wild type (DMSO control) state
cell cycle profile (S-phase entry) [4]: diminished S-phase entry

— patent US11293023B2, “Tunable endogenous protein degradation” (Dana-Farber Cancer Institute, Inc., priority 2015, dated 2022)
